Usually EC50 stands for the concentration giving half of the maximal effect.

In one assay the test system is Aβ42 secretion. Nature of the assay: Cellular γ-secretase assay (inhibition of Aβ42 secretion). Type of assay: cell-based. To be noted: Homo sapiens, 22 h, human neuroglioma H4 cells overexpressing human APP, 22 hours incubation. The protocol:
Cellular γ-Secretase Assay
The compounds were investigated in accordance with the test given hereinafter.
Human neuroglioma H4 cells overexpressing human APP were plated at 30,000 cells/well/200 μL in 96-well plates in IMDM media containing 10% FCS, […] Hygromycin B and incubated for 2 hours at 37° C., 5% CO2 prior to adding test compounds.
Compounds for testing were dissolved in 100% Me2SO yielding in a 10 mM stock solution. Typically 12 μL of these solutions were further diluted in 1000 μL of IMDM media (w/o FCS). Subsequent 1:1 dilutions gave a ten point dose response curve. 100 μL of each dilution was added to the cells in 96-well plates. Appropriate controls using vehicle only and reference compound were applied to this assay. The final concentration of Me2SO was 0.4%.
After incubation for 22 hours at 37° C., 5% CO2, 50 μL supernatant was transferred into round-bottom 96-well polypropylene plates for detection of Aβ42. 50 μL assay buffer (50 mM Tris/Cl, pH 7.4, 60 mM NaCl, 0.5% BSA, 1% TWEEN 20) was added to the wells followed by the addition of 100 μL of detection antibody (ruthenylated BAP15 0.0625 μg/mL in assay buffer). 50 μL of a premix of capture antibody (biotinylated 6E10 antibody, 1 μg/mL) and Streptavidin-coated magnetic beads (Dynal M-280, 0.125 mg/mL) were preincubated for 1 hour at room temperature before adding the assay plates. Assay plates were incubated on a shaker for 3 hours at room temperature and finally read in the Bioveris M8 Analyser according to the manufacturer's instructions (Bioveris).
IC50 values for inhibition of Aβ42 secretion were calculated by nonlinear regression fit analysis using XLfit 4.0 software (IDBS).
As to `O=C(Nc1cc(F)cc(F)c1)c1cc2cc(C3CCN(Cc4ccccc4)C3)ccc2[nH]1` (stereo not shown) [Example 1, 5-(1-Benzylpyrrolidin-3-yl)-N-(3,5-difluorophenyl)-1H-indole-2-carboxamide], the EC50 is 0.795 µM. In other words, the sub-micromolar range.
`O=C(Nc1cccc(F)c1)c1cc2cc(C3CCN(Cc4ccccc4)C3)ccc2[nH]1` (stereo not shown) [Example 3, 5-(1-Benzylpyrrolidin-3-yl)-N-(3-fluorophenyl)-1H-indole-2-carboxamide] returned an EC50 of 1.24 µM.
On the same count and under the same terms, with `CN1CCC(c2ccc3[nH]c(C(=O)Nc4cccc(F)c4)cc3c2)C1` (stereo not shown) [Example 4, N-(3-Fluorophenyl)-5-(1-methylpyrrolidin-3-yl)-1H-indole-2-carboxamide] the figure was 0.402 µM.
Same read-out and setting: with `N#Cc1cc(F)cc(NC(=O)c2cc3cc(C4CCN(Cc5ccccc5)C4)ccc3[nH]2)c1` (stereo not shown) [Example 5, 5-(1-Benzylpyrrolidin-3-yl)-N-(3-cyano-5-fluorophenyl)-1H-indole-2-carboxamide] the figure was 0.631 µM; with `CN1CCC(c2ccc3[nH]c(C(=O)Nc4cc(F)cc(C#N)c4)cc3c2)C1` (stereo not shown) [Example 6, N-(3-Cyano-5-fluorophenyl)-5-(1-methylpyrrolidin-3-yl)-1H-indole-2-carboxamide], 1.42 µM.
As to `O=C(Nc1cc(F)cc(F)c1)c1cc2cc(C3CCNC3)ccc2[nH]1` (stereo not shown) [Example 7, 5-Pyrrolidin-3-yl-1H-indole-2-carboxylic acid (3,5-difluoro-phenyl)-amide], a half-maximal effect (EC50) was put at 0.253 µM.
`O=C(Nc1cccc(F)c1)c1cc2cc(C3CCNC3)ccc2[nH]1` (stereo not shown) [Example 8, N-(3-Fluorophenyl)-5-(pyrrolidin-3-yl)-1H-indole-2-carboxamide] came in with an EC50 of 0.627 µM.
Still for that read-out and setting: with `N#Cc1cc(F)cc(NC(=O)c2cc3cc(C4CCNC4)ccc3[nH]2)c1` (stereo not shown) [Example 9, N-(3-Cyano-5-fluorophenyl)-5-(pyrrolidin-3-yl)-1H-indole-2-carboxamide] the figure was 1.27 µM.
On the same count and under the same terms, with `O=C(Nc1cc(F)cc(F)c1)c1cc2cc(C3CCN(CC(F)(F)F)C3)ccc2[nH]1` (stereo not shown) [Example 10, 5-[1-(2,2,2-Trifluoro-ethyl)-pyrrolidin-3-yl]-1H-indole-2-carboxylic acid (3,5-difluoro-phenyl)-amide] the figure was 3.83 µM; with `CC(C)N1CCC(c2ccc3[nH]c(C(=O)Nc4cc(F)cc(F)c4)cc3c2)C1` (stereo not shown) [Example 11, 5-(1-Isopropyl-pyrrolidin-3-yl)-1H-indole-2-carboxylic acid (3,5-difluoro-phenyl)-amide], 0.321 µM; with `CC(C)C(=O)N1CCC(c2ccc3[nH]c(C(=O)Nc4cc(F)cc(F)c4)cc3c2)C1` (stereo not shown) [Example 13, 5-(1-Isobutyryl-pyrrolidin-3-yl)-1H-indole-2-carboxylic acid (3,5-difluoro-phenyl)-amide], 0.713 µM.
Still for that read-out and setting: to `CC(C)N1CCC(c2ccc3[nH]c(C(=O)Nc4cccc(F)c4)cc3c2)C1` (stereo not shown) [Example 14, N-(3-Fluorophenyl)-5-(1-isopropylpyrrolidin-3-yl)-1H-indole-2-carboxamide] belongs 0.519 µM.
Compound `O=C(Nc1cccc(F)c1)c1cc2cc(C3CCN(CC(F)(F)F)C3)ccc2[nH]1` (stereo not shown) [Example 15, N-(3-Fluorophenyl)-5-(1-(2,2,2-trifluoroethyl)pyrrolidin-3-yl)-1H-indole-2-carboxamide] showed an EC50 of 1.25 µM. This EC50 lies about 2.4-fold higher than the previous one.
Take `N#CCN1CCC(c2ccc3[nH]c(C(=O)Nc4cccc(F)c4)cc3c2)C1` (stereo not shown) [Example 16, 5-(1-(Cyanomethyl)pyrrolidin-3-yl)-N-(3-fluorophenyl)-1H-indole-2-carboxamide]: the 50% effective concentration (EC50) stood at 0.373 µM.

The assay is the same for the next values; noted with them: human neuroglioma H4 cells overexpressing human APP, 22 hours incubation.
Compound `CN1CCC(c2ccc3[nH]c(C(=O)Nc4cc(F)cc(F)c4)cc3c2)C1` (stereo not shown) [Example 2, 5-(1-Methyl-pyrrolidin-3-yl)-1H-indole-2-carboxylic acid (3,5-difluoro-phenyl)-amide] had an EC50 of 0.178 µM.
`CC(C)S(=O)(=O)N1CCC(c2ccc3[nH]c(C(=O)Nc4cc(F)cc(F)c4)cc3c2)C1` (stereo not shown) [Example 12, 5-[1-(Propane-2-sulfonyl)-pyrrolidin-3-yl]-1H-indole-2-carboxylic acid (3,5-difluoro-phenyl)-amide] returned an EC50 of 1.71 µM.

(Values after patent publication US20150274661A1, “INDOL-AMIDE COMPOUNDS AS BETA-AMYLOID INHBITORS” (Hoffmann-La Roche Inc., priority 2012, published 2015).)
